Results from patent publication US20240158446A1, “CYCLIC COMPOUND HAVING SELECTIVE INHIBITORY ACTION ON KRAS OVER HRAS AND NRAS” (CHUGAI SEIYAKU KABUSHIKI KAISHA, priority 2021, published 2024).
Like-named read-outs stand apart in the source and are kept apart here. Where a SMILES comes first, the peptide text is derived from it. Bridges are numbered along the chain shown (N, C = ends). [ ]: non-standard residue; d: D form. The star is where a group is joined. hPhe(3-Cl-4-CF3) = N[C@@H](CCc1ccc(C(F)(F)F)c(Cl)c1)C(=O)O; NPrPhe(4-CF3) = CCCN[C@@H](Cc1ccc(C(F)(F)F)cc1)C(=O)O; NMeGly(cPent) = CN[C@H](C(=O)O)C1CCCC1; NMeD = CN[C@@H](CC(=O)O)C(=O)O; NMeL = CN[C@@H](CC(C)C)C(=O)O; Pyrrolidide = C1CCN(*)C1; Ac5c = NC1(C(=O)O)CCCC1; Sar = CNCC(=O)O

What was measured:
[1] = biological target: GDP-bound KRAS wild-type protein (Homo sapiens, UniProt P01116); assay: Binding to KRAS by surface plasmon resonance (SPR), Single Cycle Kinetics
GDP-bound KRAS wild-type protein, sequence (P01116 whole entry): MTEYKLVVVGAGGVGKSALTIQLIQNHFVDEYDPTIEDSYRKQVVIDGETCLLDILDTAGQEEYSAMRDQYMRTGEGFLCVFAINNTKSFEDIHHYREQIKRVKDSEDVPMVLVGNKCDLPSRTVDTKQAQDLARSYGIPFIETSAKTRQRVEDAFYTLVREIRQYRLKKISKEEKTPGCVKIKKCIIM

[2] = biological target: GDP-bound NRAS wild-type protein (Homo sapiens, UniProt P01111); assay: Binding to NRAS by surface plasmon resonance (SPR), Single Cycle Kinetics; conditions: for NRAS/KRAS (ratio of KD value with respect to GDP-bound NRAS wild-type protein to KD value with respect to KRAS): SPR KD ratio NRAS/KRAS, class symbols; for NRAS/KRAS (ratio of KD value for NRAS to KD value for KRAS) / ratio of the KD value with respect to GDP-bound NRAS wild-type protein to the KD value with respect to KRAS: SPR; for NRAS/KRAS (ratio of KD value for NRAS to KD value for KRAS): GDP-bound NRAS wild-type protein vs GDP-bound KRAS wild-type protein
GDP-bound NRAS wild-type protein, sequence (P01111 whole entry): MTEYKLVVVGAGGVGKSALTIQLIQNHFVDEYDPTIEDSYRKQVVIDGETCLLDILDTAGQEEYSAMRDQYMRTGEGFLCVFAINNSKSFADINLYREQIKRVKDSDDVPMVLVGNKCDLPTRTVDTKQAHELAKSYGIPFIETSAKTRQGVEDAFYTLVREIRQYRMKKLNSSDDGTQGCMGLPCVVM

[3] = biological target: GDP-bound HRAS wild-type protein (Homo sapiens, UniProt P01112); assay: Binding to HRAS by surface plasmon resonance (SPR), Single Cycle Kinetics; conditions: for HRAS/KRAS (ratio of KD value with respect to GDP-bound HRAS wild-type protein to KD value with respect to KRAS): SPR KD ratio HRAS/KRAS, class symbols; for HRAS/KRAS (ratio of KD value for HRAS to KD value for KRAS) / ratio of the KD value with respect to GDP-bound HRAS wild-type protein to the KD value with respect to KRAS: SPR; for HRAS/KRAS (ratio of KD value for HRAS to KD value for KRAS): GDP-bound HRAS wild-type protein vs GDP-bound KRAS wild-type protein
GDP-bound HRAS wild-type protein, sequence (P01112 whole entry): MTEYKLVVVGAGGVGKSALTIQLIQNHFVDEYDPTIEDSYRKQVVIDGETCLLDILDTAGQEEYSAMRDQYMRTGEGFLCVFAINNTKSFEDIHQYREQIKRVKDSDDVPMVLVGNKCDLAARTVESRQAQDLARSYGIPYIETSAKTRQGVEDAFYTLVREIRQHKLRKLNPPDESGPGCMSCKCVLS

[4] = system: human lung cancer strain NCI-H441;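 note: cell proliferation inhibition after four days measured by CellTiter-Glo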
[5] = SPR Single Cycle Kinetics, GDP-bound KRAS wild-type protein, 1:1 binding model, read-out: KRAS KD
[6] = SPR, Single Cycle Kinetics, GDP-bound KRAS wild-type protein, read-out: KRAS KD
[7] = read-out: NCI-H441 cell proliferation inhibitory activity, 50% proliferation inhibitory concentration (IC50 value), NCI-H441, four days, CellTiter-Glo
[8] = SPR, Single Cycle Kinetics, 1:1 binding model, GDP-bound KRAS wild-type protein, read-out: KRAS KD

SMILES	Kd [1, 5]	IC50 [4]	Kd [1, 6]	NRAS/KRAS (ratio of KD value for NRAS to KD value for KRAS) [2]	HRAS/KRAS (ratio of KD value for HRAS to KD value for KRAS) [3]	also measured
CCCN1C(=O)CN(C)C(=O)CN(C)C(=O)[C@H]([C@@H](C)CC)NC(=O)[C@H](CC(C)C)N(C)C(=O)C[C@@H](C(=O)N2CCCC2)N(C)C(=O)[C@H](C2CCCC2)N(C)C(=O)C2(CCCC2)NC(=O)[C@@H]2CCCN2C(=O)[C@H](CCc2ccc(C(F)(F)F)c(Cl)c2)NC(=O)CN(C)C(=O)[C@@H]1Cc1ccc(C(F)(F)F)cc1 [PP0170] ([NMeL]I[Sar][Sar][NPrPhe(4-CF3)][Sar][hPhe(3-Cl-4-CF3)]P[Ac5c][NMeGly(cPent)][NMeD]-Pyrrolidide; lactam N-11)	0.12 nM	5.2 nM		B (a compound having 3 or more and less than 10 is denoted as B)	B (a compound having 3 or more and less than 10 is denoted as B)	
CCCOC[C@H]1C(=O)N[C@@H]([C@@H](C)CC)C(=O)N2CCC[C@H]2C(=O)N(C)[C@H]2C/C=C\CCN(C2=O)[C@@H](CC2CCC(F)(F)CC2)C(=O)N(C)CC(=O)N[C@@H](CCc2ccc(C(F)(F)F)c(OC)c2)C(=O)N2C[C@H](OCC)C[C@H]2C(=O)N(C)C2(CCC2)C(=O)N(C)[C@@H](C2CCCC2)C(=O)N(C)[C@H](C(=O)N(C)C)CC(=O)N1C [PP2357]		59.7 nM	1.2 nM	A (a compound having 10 or more and less than 20 is denoted as A)	B (a compound having 3 or more and less than 10 is denoted as B)	
CCO[C@@H]1C[C@H]2C(=O)NC3(CCC3)C(=O)N(C)[C@@H](C3CCCC3)C(=O)N(C)[C@H](C(=O)N3CCOCC3)CC(=O)N(C)[C@@H](Cc3ccsc3)C(=O)N[C@@H]([C@@H](C)CC)C(=O)N(C)CC(=O)N(C)[C@H]3CCCCCN(C3=O)[C@@H](Cc3ccc(C(F)(F)F)cc3)C(=O)N(C)CC(=O)N[C@@H](CCc3cc(F)c(C(F)(F)F)c(F)c3)C(=O)N2C1 [PP1164]		95.9 nM	0.52 nM	B (a compound having 3 or more and less than 10 is denoted as B)	B (a compound having 3 or more and less than 10 is denoted as B)	
CCCCCC[C@H]1C(=O)N[C@@H]([C@@H](C)CC)C(=O)N(C)CC(=O)N(C)[C@H]2C/C=C\CCN(C2=O)[C@@H](Cc2ccc(C(F)(F)F)cc2)C(=O)N(C)CC(=O)N[C@@H](CCc2ccc3sccc3c2)C(=O)N2C[C@H](OCC)C[C@H]2C(=O)NC2(CCC2)C(=O)N(C)[C@@H](C(CC)CC)C(=O)N(C)[C@H](C(=O)N(C)C)CC(=O)N1C [PP1226]		106 nM				Kd [1, 8]: 2.4 nM; NRAS/KRAS (ratio of KD value for NRAS to KD value for KRAS) ([2]; KD ratio class): AA (a compound having 20 or more is denoted as AA); HRAS/KRAS (ratio of KD value for HRAS to KD value for KRAS) ([3]; KD ratio class): A (a compound having 10 or more and less than 20 is denoted as A)
CCO[C@@H]1C[C@H]2C(=O)NC3(CCCC3)C(=O)N(C)[C@@H](C3CCCC3)C(=O)N(C)[C@H](C(=O)N(C)C)CC(=O)N(C)[C@@H](CC(C)C)C(=O)N[C@@H]([C@@H](C)CC)C(=O)N(C)CC(=O)N(C)[C@H]3C/C=C\CCN(C3=O)[C@@H](CC3CCC(F)(F)CC3)C(=O)N(C)CC(=O)N[C@@H](CCc3cc(F)c(C(F)(F)F)c(F)c3)C(=O)N2C1 [PP1459]		38.6 nM				Kd [1, 8]: 0.2 nM; NRAS/KRAS (ratio of KD value for NRAS to KD value for KRAS) ([2]; KD ratio class): A (a compound having 10 or more and less than 20 is denoted as A); HRAS/KRAS (ratio of KD value for HRAS to KD value for KRAS) ([3]; KD ratio class): A (a compound having 10 or more and less than 20 is denoted as A)
CCO[C@@H]1C[C@H]2C(=O)NC3(CCC3)C(=O)N(C)[C@@H](C3CCCC3)C(=O)N(C)[C@H](C(=O)N(C)C)CC(=O)N(C)[C@@H](COCC(F)(F)F)C(=O)N[C@@H]([C@@H](C)CC)C(=O)N(C)CC(=O)N(C)[C@H]3C/C=C\CCN(C3=O)[C@@H](Cc3ccc(C(F)(F)F)cc3)C(=O)N(C)CC(=O)N[C@@H](CCc3cc(F)c(C(F)(F)F)c(F)c3)C(=O)N2C1 [PP1267]		10.8 nM				Kd [1, 8]: 0.046 nM; NRAS/KRAS (ratio of KD value for NRAS to KD value for KRAS) ([2]; KD ratio class): A (a compound having 10 or more and less than 20 is denoted as A); HRAS/KRAS (ratio of KD value for HRAS to KD value for KRAS) ([3]; KD ratio class): A (a compound having 10 or more and less than 20 is denoted as A)
CC[C@H](C)[C@@H]1NC(=O)[C@H](COC)N(C)C(=O)C[C@@H](C(=O)N(C)CC)N(C)C(=O)[C@H](C2CCCC2)N(C)C(=O)C2(CC(C)(C)C2)NC(=O)[C@@H]2C[C@H](C)CN2C(=O)[C@H](CCc2cc(F)c(C(F)(F)F)c(F)c2)NC(=O)CN(C)C(=O)[C@H](Cc2ccc(C)cc2)N2CC/C=C\C[C@@H](C2=O)N(C)C(=O)CN(C)C1=O [PP2437]		18.8 nM	0.12 nM	A (a compound having 10 or more and less than 20 is denoted as A)	A (a compound having 10 or more and less than 20 is denoted as A)	

Further lines, with some results ahead:

Kd [1, 5]	IC50 [4]	Kd [1, 6]	SMILES	NRAS/KRAS (ratio of KD value for NRAS to KD value for KRAS) [2]	HRAS/KRAS (ratio of KD value for HRAS to KD value for KRAS) [3]	also measured
0.25 nM	13.2 nM		CCC[C@H]1C(=O)N[C@@H]([C@@H](C)CC)C(=O)N(C)CC(=O)N(C)[C@H]2C/C=C\CCN(C2=O)[C@@H](Cc2ccc(C)cc2)C(=O)N(C)CC(=O)N[C@@H](CCc2ccc(Cl)c(Cl)c2)C(=O)N2C[C@H](OCC)C[C@H]2C(=O)NC2(CC(C)(C)C2)C(=O)N(C)[C@@H](CC(C)(C)C)C(=O)N(C)[C@H](C(=O)N(C)C)CC(=O)N1C [PP2714]			NRAS/KRAS (ratio of KD value with respect to GDP-bound NRAS wild-type protein to KD value with respect to KRAS) [2]: A (a compound having 10 or more and less than 20 is denoted as A); HRAS/KRAS (ratio of KD value with respect to GDP-bound HRAS wild-type protein to KD value with respect to KRAS) [3]: A (a compound having 10 or more and less than 20 is denoted as A)
		0.24 nM	CCC[C@H]1C(=O)N[C@@H]([C@@H](C)CC)C(=O)N(C2CC2)CC(=O)N(C)[C@H]2C/C=C\CCN(C2=O)[C@@H](Cc2ccc(C)cc2)C(=O)N(C)CC(=O)N[C@@H](CCc2ccc(C(F)(F)F)c(OC)c2)C(=O)N2C[C@H](OCC)C[C@H]2C(=O)N(C)C2(CCC2)C(=O)N(C)[C@@H](C2CCCC2)C(=O)N(C)[C@H](C(=O)N2CCCC2)CC(=O)N1C [PP3098, (2S,8S,12R,14S,20S,23S,27S,30S,36S,38Z)-20-cyclopentyl-32-cyclopropyl-12-ethoxy-8-[2-[3-methoxy-4-(trifluoromethyl)phenyl]ethyl]-4,16,19,22,26,35-hexamethyl-30-[(1S)-1-methylpropyl]-27-propyl-2-(p-tolylmethyl)-23-(pyrrolidine-1-carbonyl)spiro[1,4,7,10,16,19,22,26,29,32,35-undecazatricyclo[34.5.1.0^10,14]dotetracont-38-ene-17,1′-cyclobutane]-3,6,9,15,18,21,25,28,31,34,42-undecone]	A (a compound having 10 or more and less than 20 is denoted as A)	A (a compound having 10 or more and less than 20 is denoted as A)	Kd ([1]; SPR, Single Cycle Kinetics, 1:1 binding model, read-out: KD value with respect to GDP-bound KRAS wild-type protein): 0.24 nM; ratio of the KD value with respect to GDP-bound NRAS wild-type protein to the KD value with respect to KRAS [2]: A (a compound having 10 or more and less than 20 is denoted as A); ratio of the KD value with respect to GDP-bound HRAS wild-type protein to the KD value with respect to KRAS [3]: A (a compound having 10 or more and less than 20 is denoted as A); IC50 [4, 7]: 4.7 nM
		0.04 nM	CCCO[C@@H]1C[C@H]2C(=O)NC3(CC(C)(C)C3)C(=O)N(C)[C@@H](C3CCCC3)C(=O)N(C)[C@H](C(=O)N(C)C)CC(=O)N(C)[C@H]3CCCCc4ccc(cc4)C[C@@H](C(=O)N(C)CC(=O)N[C@@H](CCc4ccc(C(F)(F)F)c(OC)c4)C(=O)N2C1)N1CC/C=C\C[C@@H](C1=O)N(C)C(=O)CN(C)C(=O)[C@H]([C@@H](C)CC)NC3=O [PP3077]	A (a compound having 10 or more and less than 20 is denoted as A)	B (a compound having 3 or more and less than 10 is denoted as B)	ratio of the KD value with respect to GDP-bound NRAS wild-type protein to the KD value with respect to KRAS [2]: A (a compound having 10 or more and less than 20 is denoted as A); ratio of the KD value with respect to GDP-bound HRAS wild-type protein to the KD value with respect to KRAS [3]: B (a compound having 3 or more and less than 10 is denoted as B); IC50 [4, 7]: 0.8 nM
0.54 nM	26.8 nM		CCC[C@H]1C(=O)N[C@@H]([C@@H](C)CC)C(=O)N(C)CC(=O)N(C)[C@H]2C/C=C\CCN(C2=O)[C@@H](Cc2ccc(C(F)F)cc2)C(=O)N(C)CC(=O)N[C@@H](CCc2ccc(Cl)c(Cl)c2)C(=O)N2C[C@H](OC(C)C)C[C@H]2C(=O)NC2(CC(C)(C)C2)C(=O)N(C)[C@@H](C(CC)CC)C(=O)N(C)[C@H](C(=O)N(C)C)CC(=O)N1C [PP2535]			NRAS/KRAS (ratio of KD value with respect to GDP-bound NRAS wild-type protein to KD value with respect to KRAS) [2]: AA (a compound having 20 or more is denoted as AA); HRAS/KRAS (ratio of KD value with respect to GDP-bound HRAS wild-type protein to KD value with respect to KRAS) [3]: A (a compound having 10 or more and less than 20 is denoted as A)
4.7 nM	295 nM		CCC[C@H]1C(=O)N[C@@H](CC(C)C)C(=O)N(CCOC)CC(=O)N(C)[C@H]2C/C=C\CCN(C2=O)[C@@H](Cc2ccc(C)cc2)C(=O)N(C)CC(=O)N[C@@H](CCc2ccc(C(F)(F)F)c(Cl)c2)C(=O)N2C[C@H](OCC)C[C@H]2C(=O)NC2(CCC2)C(=O)N(C)[C@@H](C2CCCC2)C(=O)N(C)[C@H](C(=O)N(C)C)CC(=O)N1C [PP2546]			NRAS/KRAS (ratio of KD value with respect to GDP-bound NRAS wild-type protein to KD value with respect to KRAS) [2]: B (a compound having 3 or more and less than 10 is denoted as B); HRAS/KRAS (ratio of KD value with respect to GDP-bound HRAS wild-type protein to KD value with respect to KRAS) [3]: B (a compound having 3 or more and less than 10 is denoted as B)
